Patent publication US9376454B2, “Beta-lactamase inhibitors” (priority 2013, dated 2016)
Where two headings read alike, the source gives them in different places.

Assays:
KPC-2 β-lactamase = target: T1, KPC-2 β-lactamase (Klebsiella pneumoniae, UniProt Q9F663); experiment: β-Lactamase inhibition enzyme assay, KPC-2; assay type: biochemical
T1 construct: made in house; host or cells: E. coli BL21(DE3)
Procedure, shortened: (§1)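 Native untagged β-lactamases from E. coli BL21(DE3) were purified and preincubated with inhibitor 15 min at 37° C. Hydrolysis was then followed as initial rates: 100 μM nitrocefin at 486 nm for p99 AmpC and OXA-1, imipenem at 300 nm for KPC-2, cefotaxime at 260 nm for SHV-5. IC50 = 50% reduction versus no-inhibitor controls.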

OXA-1 β-lactamase = target: T2, OXA-1 β-lactamase (Escherichia coli, UniProt P13661); experiment: β-Lactamase inhibition enzyme assay, OXA-1; assay type: biochemical
T2 construct: made in house; host or cells: E. coli BL21(DE3)
T2 sequence (P13661 26-276): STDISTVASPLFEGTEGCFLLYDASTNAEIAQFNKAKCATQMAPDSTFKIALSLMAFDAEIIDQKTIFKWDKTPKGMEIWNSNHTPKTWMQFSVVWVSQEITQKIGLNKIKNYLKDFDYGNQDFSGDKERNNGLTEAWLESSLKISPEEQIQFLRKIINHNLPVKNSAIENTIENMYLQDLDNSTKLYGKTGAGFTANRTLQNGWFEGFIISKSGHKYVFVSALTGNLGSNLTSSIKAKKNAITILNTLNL
Procedure, shortened: as §1

[1] = target: T3, VIM-2 metallo β-lactamase (Pseudomonas aeruginosa, UniProt Q9K2N0); experiment: β-Lactamase inhibition enzyme assay, VIM-2; assay type: biochemical; conditions: Nitrocefin 100 μM as substrate, 486 nm; 15 min at 37° C. with enzyme, PBS pH 7.4; read-out: Class B VIM-2 IC50
T3 construct: made in house; host or cells: E. coli BL21(DE3)
Procedure, shortened: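 Purified untagged VIM-2, expressed in E. coli BL21(DE3), preincubated with inhibitor 15 min at 37 °C. Nitrocefin added at 100 μM final, and absorbance at 486 nm monitored for 10 min. IC50 taken as inhibitor concentration halving initial hydrolysis rate relative to uninhibited controls.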

p99 AmpC β-lactamase = target: T4, p99 AmpC β-lactamase (Enterobacter cloacae, UniProt P05364); experiment: β-Lactamase inhibition enzyme assay, p99 AmpC; assay type: biochemical
T4 construct: made in house; host or cells: E. coli BL21(DE3)
T4 sequence (P05364 21-381): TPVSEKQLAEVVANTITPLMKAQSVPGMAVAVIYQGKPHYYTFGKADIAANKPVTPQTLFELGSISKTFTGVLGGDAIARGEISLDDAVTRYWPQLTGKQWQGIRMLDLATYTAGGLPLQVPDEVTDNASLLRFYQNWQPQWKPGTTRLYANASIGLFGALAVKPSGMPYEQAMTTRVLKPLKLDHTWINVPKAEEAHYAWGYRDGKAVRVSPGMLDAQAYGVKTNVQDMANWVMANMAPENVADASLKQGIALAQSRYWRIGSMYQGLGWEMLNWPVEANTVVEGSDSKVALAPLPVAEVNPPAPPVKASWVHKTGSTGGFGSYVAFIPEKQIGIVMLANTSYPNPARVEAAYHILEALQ
Procedure, shortened: as §1

[2] = system: E. cloacae 144200 expressing p99 AmpC; experiment: Broth microdilution MIC assay, E. cloacae P99; assay type: cell-based; conditions: fixed ceftazidime 4 μg/mL; CAMHB, 16-20 hours at 37° C.
SHV-5 β-lactamase = target: T5, SHV-5 β-lactamase (Klebsiella pneumoniae, UniProt P0A3M1); experiment: β-Lactamase inhibition enzyme assay, SHV-5; assay type: biochemical
T5 construct: made in house; host or cells: E. coli BL21(DE3)
T5 sequence (P0A3M1 22-286): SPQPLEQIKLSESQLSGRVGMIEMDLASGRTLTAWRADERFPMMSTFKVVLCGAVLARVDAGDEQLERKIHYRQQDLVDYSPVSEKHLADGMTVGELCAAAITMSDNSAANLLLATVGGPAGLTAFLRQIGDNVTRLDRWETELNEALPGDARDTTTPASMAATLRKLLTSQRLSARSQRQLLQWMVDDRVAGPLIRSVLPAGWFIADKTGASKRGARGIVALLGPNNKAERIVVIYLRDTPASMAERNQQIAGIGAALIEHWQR
Procedure, shortened: as §1

[3] = system: S. aureus MSSA-7 producing penicillinase PC-1; experiment: Broth microdilution MIC assay, S. aureus PC-1; assay type: cell-based
[4] = system: K. pneumoniae A-1797 expressing KPC-2 and VIM-4; experiment: Broth microdilution MIC assay, K. pneumoniae KPC-2 and VIM-4; assay type: cell-based; conditions: K. pneumoniae expressing KPC-2 and VIM-4
[5] = system: P. aeruginosa Ps296 expressing VIM-2; experiment: Broth microdilution MIC assay, P. aeruginosa VIM-2; assay type: cell-based; conditions: P. aeruginosa expressing carbapenemase VIM-2
[6] = system: E. coli ESBL4 expressing CTX-M-15; experiment: Broth microdilution MIC assay, E. coli CTX-M-15; assay type: cell-based; conditions: E. coli expressing Class A ESBL CTX-M-15
[7] = imipenem as substrate, 300 nm, 15 min at 37° C. with enzyme, PBS pH 7.4, read-out: Class A KPC-2 IC50
[8] = Nitrocefin 100 μM as substrate, 486 nm, 15 min at 37° C. with enzyme, PBS pH 7.4, read-out: Class D OXA-1 IC50

T1 sequence (Q9F663 25-293, looked up): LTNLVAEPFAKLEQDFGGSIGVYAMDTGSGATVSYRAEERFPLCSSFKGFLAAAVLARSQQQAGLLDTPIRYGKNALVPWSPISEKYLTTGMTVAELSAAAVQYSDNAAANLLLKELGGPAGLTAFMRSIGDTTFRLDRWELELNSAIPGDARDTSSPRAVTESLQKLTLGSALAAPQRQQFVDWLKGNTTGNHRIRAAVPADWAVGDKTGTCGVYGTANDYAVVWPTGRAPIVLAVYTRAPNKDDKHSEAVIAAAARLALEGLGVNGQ

Compound | IC50 (KPC-2 β-lactamase; [7]) | IC50 (OXA-1 β-lactamase; [8]) | IC50 [1] | IC50 (p99 AmpC β-lactamase) | IC50 (SHV-5 β-lactamase) | further results
NCc1cc(CN)cc(C(=O)N[C@H]2Cc3cccc(C(=O)O)c3OB2O)c1 [Example 44, (R)-3-(3,5-bis(aminomethyl)benzamido)-2-hydroxy-3,4-dihydro-2H-benzo[e][1,2]oxaborinine-8-carboxylic acid] | 1000 to 10000 nM | 1000 to 10000 nM | 1000 to 10000 nM | 100 to 1000 nM | 1000 to 10000 nM | MIC of Exemplary Compounds in presence of fixed β-lactams: Fixed CAZ, E. cl. 144200 p99 AmpC [2]: C (C represents the MIC in the presence of ≦4 μg/mL of a β-lactamase inhibitor of exemplary compounds)
O=C(O)c1cccc2c1OB(O)[C@@H](NC(=O)C1(c3ccccc3)CCNCC1)C2 [Example 3, (R)-2-hydroxy-3-(4-phenylpiperidine-4-carboxamido)-3,4-dihydro-2H-benzo[e][1,2]oxaborinine-8-carboxylic acid] |  |  | 1000 to 10000 nM | < 100 nM | 10000 to 100000 nM | IC50 (KPC-2 β-lactamase): < 100 nM; IC50 (OXA-1 β-lactamase): 100 to 1000 nM; MIC of Exemplary Compounds in presence of fixed β-lactams: Fixed Pip, S. aureus MSSA-7 PC-1 ([3]; fixed piperacillin 4 μg/mL, CAMHB, 16-20 hours at 37° C.): A (A represents an MIC of the fixed β-lactam antibiotic in the presence of >32 μg/mL of a β-lactamase inhibitor of exemplary compounds)
CCN1CCN(C(=O)N[C@@H](C(=O)N[C@@H]2C(=O)N3[C@@H]2SC(C)(C)[C@@H]3C(=O)O)c2ccccc2)C(=O)C1=O [Piperacillin, reference compound] |  |  |  |  |  | MIC alone of partner antibiotic ([3]; antibiotic alone, S. aureus producing penicillinase PC-1): 64 µg/mL
C[C@@H](O)[C@H]1C(=O)N2C(C(=O)O)=C(S[C@@H]3CN[C@H](C(=O)N(C)C)C3)[C@H](C)[C@H]12 [Meropenem] |  |  |  |  |  | MIC alone of partner antibiotic [4]: 64 µg/mL; MIC alone of partner antibiotic [5]: 16 µg/mL
O=C(N[C@H]1Cc2cccc(C(=O)O)c2OB1O)c1ccc(-c2ncc[nH]2)cc1 [Example 47, (R)-2-Hydroxy-3-[4-(1H-imidazol-2-yl)-benzoylamino]-3,4-dihydro-2H-benzo[e][1,2]oxaborinine-8-carboxylic acid] | < 100 nM | < 100 nM | 100 to 1000 nM | < 100 nM | < 100 nM | 
N=C(N)N1Cc2ccc(CC(=O)N[C@H]3Cc4cccc(C(=O)O)c4OB3O)cc2C1 [Example 37, (3R)-3-[[2-(2-carbamimidoylisoindolin-5-yl)acetyl]amino]-2-hydroxy-3,4-dihydro-1,2-benzoxaborinine-8-carboxylic acid] | < 100 nM | < 100 nM | 100 to 1000 nM | < 100 nM | < 100 nM | 
NCc1ccc(C(=O)N[C@H]2Cc3cccc(C(=O)O)c3OB2O)cc1CN [Example 14, (R)-3-(3,4-bis(aminomethyl)benzamido)-2-hydroxy-3,4-dihydro-2H-benzo[e][1,2]oxaborinine-8-carboxylic acid] | 100 to 1000 nM | < 100 nM | < 100 nM | < 100 nM | 100 to 1000 nM | 
CC(C)(O/N=C(\C(=O)N[C@@H]1C(=O)N2C(C(=O)[O-])=C(C[n+]3ccccc3)CS[C@H]12)c1csc(N)n1)C(=O)O [Ceftazidime] |  |  |  |  |  | MIC alone of partner antibiotic [6]: > 128 µg/mL
O=C(N[C@H]1Cc2cccc(C(=O)O)c2OB1O)c1ccc2c(c1)CCNC2 [Example 5, (R)-3-(2-borono-2-(1,2,3,4-tetrahydroisoquinoline-6-carboxamido)ethyl)-2-hydroxybenzoic acid] | < 100 nM | < 100 nM | 100 to 1000 nM | < 100 nM | < 100 nM | 
O=C(N[C@H]1Cc2cccc(C(=O)O)c2OB1O)c1ccc2[nH]ccc2c1 [Example 26, (R)-2-hydroxy-3-(1H-indole-5-carboxamido)-3,4-dihydro-2H-benzo[e][1,2]oxaborinine-8-carboxylic acid] | < 100 nM | < 100 nM | 100 to 1000 nM | < 100 nM | < 100 nM | 
O=C(N[C@H]1Cc2cccc(C(=O)O)c2OB1O)c1ccc2nc[nH]c2c1 [Example 34, (R)-3-[(3H-Benzoimidazole-5-carbonyl)-amino]-2-hydroxy-3,4-dihydro-2H-benzo[e][1,2]oxaborinine-8-carboxylic acid] | < 100 nM | < 100 nM | 100 to 1000 nM | < 100 nM | < 100 nM | 
